The test deals with P388 leukemia ip, CD2F1 mice, survival T/C. In words: NCI In Vivo Anticancer Drug Screen. Data for tumor model P388 Leukemia (intraperitoneal) in CD2F1 (CDF1) mice. Conditions: endpoint: median survival time, higher = longer survival. A digest of the protocol: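 Mice carrying the transplanted tumor received test compound or vehicle. Survival was recorded in each group, and the value is the treated-group measurement divided by that of the vehicle-treated control group.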

The mark [1] stands for this setting: dose: 60.0 mg/kg/injection, schedule: Q01DX005 (ip), vehicle: saline with Tween-80.
Where [2] appears, read: dose: 120.0 mg/kg/injection, schedule: Q01DX005 (ip), vehicle: saline with Tween-80.
[3] abbreviates: dose: 25.0 mg/kg/injection, schedule: Q01DX009 (ip), vehicle: other.
Where [4] appears, read: dose: 50.0 mg/kg/injection, schedule: Q01DX009 (ip), vehicle: saline.
The mark [5] stands for this setting: dose: 100.0 mg/kg/injection, schedule: Q01DX009 (ip), vehicle: saline.
Where [6] appears, read: dose: 200.0 mg/kg/injection, schedule: Q01DX009 (ip), vehicle: saline.
Where [7] appears, read: dose: 50.0 mg/kg/injection, schedule: Q01DX005 (ip), vehicle: Klucel (hydroxypropylcellulose) (HPC).
Where [8] appears, read: dose: 100.0 mg/kg/injection, schedule: Q01DX005 (ip), vehicle: Klucel (hydroxypropylcellulose) (HPC).
[9] abbreviates: dose: 50.0 mg/kg/injection, schedule: Q01DX009 (ip), vehicle: saline with Tween-80.
Setting [10] is: dose: 100.0 mg/kg/injection, schedule: Q01DX009 (ip), vehicle: saline with Tween-80.
[11] abbreviates: dose: 200.0 mg/kg/injection, schedule: Q01DX009 (ip), vehicle: saline with Tween-80.
[12] abbreviates: dose: 50.0 mg/kg/injection, schedule: Q01DX009 (ip), vehicle: Klucel (hydroxypropylcellulose) (HPC).
[13] abbreviates: dose: 100.0 mg/kg/injection, schedule: Q01DX009 (ip), vehicle: Klucel (hydroxypropylcellulose) (HPC).
The mark [14] stands for this setting: dose: 200.0 mg/kg/injection, schedule: Q01DX009 (ip), vehicle: Klucel (hydroxypropylcellulose) (HPC).
The mark [15] stands for this setting: dose: 200.0 mg/kg/injection, schedule: Q01DX005 (ip), vehicle: Klucel (hydroxypropylcellulose) (HPC).

“And” between values parts separate entries of the source, which are not always exact repeats. Equal values may be shown once. Toxic doses and inconclusive results are not listed.

As to `CCS(=O)(=O)[O][Sn]([CH2]C)([CH2]C)[O]S(=O)(=O)CC`, the T/C runs as follows: (dose: 1.56 mg/kg/injection, schedule: Q04DX003 (ip), vehicle: saline) 107 % of control; (dose: 3.12 mg/kg/injection, schedule: Q04DX003 (ip), vehicle: saline) 110 % of control; (dose: 6.25 mg/kg/injection, schedule: Q04DX003 (ip), vehicle: saline) 116 % of control and 121 % of control.
With `CSC1=NC=C(C#N)C2=NC(c3cccs3)NN12` (stereo not given), the T/C under setting [1] is 118 % of control; the T/C under setting [2] is 99 % of control; the T/C (dose: 240.0 mg/kg/injection, schedule: Q01DX005 (ip), vehicle: saline with Tween-80) was 96 % of control.
In the case of `CC(C)C[NH-].CC(C)C[NH-].O.O.[Cl][Pt+2][Cl]`, the T/C (dose: 11.0 mg/kg/injection, schedule: Q01DX009 (ip), vehicle: saline with Tween-80) is 167 % of control; the T/C (dose: 12.5 mg/kg/injection, schedule: Q01DX009 (ip), vehicle: other) was 181 % of control; the T/C (dose: 16.5 mg/kg/injection, schedule: Q01DX009 (ip), vehicle: saline with Tween-80) is 180 % of control; the T/C under setting [3] is 200 % of control; the T/C (dose: 25.0 mg/kg/injection, schedule: Q01DX009 (ip), vehicle: saline with Tween-80) is 218 % of control.
`NC1=NC(c2ccccc2O)CC(=O)N1` (stereo not given): the T/C reads like this: under setting [4], 103 % of control; under setting [5], 111 % of control; under setting [6], 110 % of control.
Take `O=P(CCCCBr)(NCc1ccccc1)c1ccccc1` (stereo not given): the T/C (dose: 100.0 mg/kg/injection, schedule: Q04DX003 (ip), vehicle: Klucel (hydroxypropylcellulose) (HPC)) is 105 % of control and the T/C (dose: 200.0 mg/kg/injection, schedule: Q04DX003 (ip), vehicle: Klucel (hydroxypropylcellulose) (HPC)) is 117 % of control.
As to `CN1CCN(CC2C(=O)C3CCC2C3)CC1` (stereo not given), the T/C was 93 % of control (dose: 50.0 mg/kg/injection, schedule: Q01DX005 (ip), vehicle: saline with Tween-80) and 101 % of control (dose: 100.0 mg/kg/injection, schedule: Q01DX005 (ip), vehicle: saline with Tween-80).
With `NC(CCCCNC(=S)S)C(=O)O.[Na+].[Zn+2]` (stereo not given), the T/C reads like this: (dose: 12.5 mg/kg/injection, schedule: Q01DX005 (ip), vehicle: Klucel (hydroxypropylcellulose) (HPC)) 102 % of control; (dose: 25.0 mg/kg/injection, schedule: Q01DX005 (ip), vehicle: Klucel (hydroxypropylcellulose) (HPC)) 102 % of control; under setting [7], 102 % of control and 107 % of control and 114 % of control; under setting [8], 109 % of control and 120 % of control (2×).
For the compound `O=C(CC(=O)NO)NO`, the T/C is, setting by setting: under setting [9], 106 % of control; under setting [4], 115 % of control; under setting [10], 108 % of control; under setting [5], 110 % of control; under setting [11], 108 % of control; under setting [6], 108 % of control.
Consider `[Cl][Sn]([Cl])([S]c1nccc2ccccc12)[S]c1nccc2ccccc12`, for which the T/C is 102 % of control under setting [9], 93 % of control under setting [10] and 93 % of control under setting [11].
For `COc1cc(Br)cc(C(=O)N2CCc3ccccc32)c1OC`, the T/C reads like this: under setting [3], 99 % of control; (dose: 50.0 mg/kg/injection, schedule: Q01DX009 (ip), vehicle: other) 96 % of control; (dose: 100.0 mg/kg/injection, schedule: Q01DX009 (ip), vehicle: other) 96 % of control; (dose: 200.0 mg/kg/injection, schedule: Q01DX009 (ip), vehicle: other) 96 % of control; (dose: 400.0 mg/kg/injection, schedule: Q01DX009 (ip), vehicle: other) 87 % of control.
Consider `C[C@@]12CCCC1=[N+]1CCc3ccccc3[C@@H]1CC2=O`, for which the T/C is 101 % of control (dose: 100.0 mg/kg/injection, schedule: Q04DX002 (ip), vehicle: Klucel (hydroxypropylcellulose) (HPC)) and 102 % of control (dose: 200.0 mg/kg/injection, schedule: Q04DX002 (ip), vehicle: Klucel (hydroxypropylcellulose) (HPC)).
On to `CCn1c2ccccc2c2cc(N=Nc3cc4ccccc4cc3O)ccc21`, for which the T/C by setting is: under setting [12], 104 % of control; under setting [13], 100 % of control; under setting [14], 104 % of control.
On to `CCN=NNc1ccc([N+](=O)[O-])cc1`, for which the T/C was 95 % of control (dose: 12.5 mg/kg/injection, schedule: Q01DX009 (ip), vehicle: distilled water + Tween-80); 100 % of control (dose: 25.0 mg/kg/injection, schedule: Q01DX009 (ip), vehicle: distilled water + Tween-80); 105 % of control (dose: 50.0 mg/kg/injection, schedule: Q01DX009 (ip), vehicle: distilled water + Tween-80); 100 % of control (dose: 100.0 mg/kg/injection, schedule: Q01DX009 (ip), vehicle: distilled water + Tween-80); 112 % of control (dose: 200.0 mg/kg/injection, schedule: Q01DX009 (ip), vehicle: distilled water + Tween-80).
For `CN1CCCC1=NCCN=C1CCCN1C`, the T/C is, setting by setting: (dose: 50.0 mg/kg/injection, schedule: Q01DX005 (ip), vehicle: saline) 117 % of control; (dose: 100.0 mg/kg/injection, schedule: Q01DX005 (ip), vehicle: saline) 99 % of control; (dose: 200.0 mg/kg/injection, schedule: Q01DX005 (ip), vehicle: saline) 98 % of control.
With `CN(C)C(=S)SSC(C)(C)C`, the T/C by setting is: under setting [7], 100 % of control; under setting [8], 99 % of control; under setting [15], 100 % of control.
In the case of `CCCCCCCCCOCC(O)CCl` (stereo not given), the T/C runs as follows: under setting [12], 97 % of control; under setting [13], 98 % of control; under setting [14], 93 % of control.
In the case of `CCOC(=O)C1=C(Nc2ccc([N+](=O)[O-])cc2)CCCC1`, the T/C was 93 % of control (dose: 1.56 mg/kg/injection, schedule: Q01DX009 (ip), vehicle: saline); 95 % of control (dose: 3.12 mg/kg/injection, schedule: Q01DX009 (ip), vehicle: saline); 95 % of control (dose: 6.25 mg/kg/injection, schedule: Q01DX009 (ip), vehicle: saline).
For the compound `Cc1ccc(S(=O)(=O)F)cc1C(=O)O`, the T/C under setting [1] was 101 % of control and the T/C under setting [2] is 93 % of control.
For `CC(C)=CCCC(C)=C(C#N)C#N`, the T/C (dose: 100.0 mg/kg/injection, schedule: Q04DX003 (ip), vehicle: saline with Tween-80) was 100 % of control.
As to `C[CH2][Sn]1([CH2]C)[O]C(=O)[O][Sn]([CH2]C)([CH2]C)[O]1`, the T/C is 122 % of control (dose: 3.12 mg/kg/injection, schedule: Q01DX005 (ip), vehicle: Klucel (hydroxypropylcellulose) (HPC)) and 119 % of control (dose: 6.25 mg/kg/injection, schedule: Q01DX005 (ip), vehicle: Klucel (hydroxypropylcellulose) (HPC)).
As for `Nc1[nH]c(=S)[nH]c(=O)c1NS(=O)(=O)c1ccccc1`, the T/C was 104 % of control and 106 % of control (dose: 30.0 mg/kg/injection, schedule: Q01DX005 (ip), vehicle: Klucel (hydroxypropylcellulose) (HPC)); 98 % of control and 97 % of control (dose: 120.0 mg/kg/injection, schedule: Q01DX005 (ip), vehicle: Klucel (hydroxypropylcellulose) (HPC)); 98 % of control and 108 % of control (dose: 240.0 mg/kg/injection, schedule: Q01DX005 (ip), vehicle: Klucel (hydroxypropylcellulose) (HPC)).
Turning to `O=[N+]([O-])c1ccc(N2C(c3ccccc3)=N[C@@H](N3CCOCC3)[C@@H]2N2CCOCC2)cc1`, the T/C under setting [7] was 101 % of control, the T/C under setting [8] was 97 % of control and the T/C under setting [15] is 95 % of control.
As for `CC/C=C(\CC)C(=O)O`, the T/C is 90 % of control under setting [4], 100 % of control under setting [5] and 102 % of control under setting [6].
On to `O=C(CBr)c1cc2ccccc2[nH]1`, for which the T/C was 110 % of control (dose: 100.0 mg/kg/injection, schedule: Q01DX001 (ip), vehicle: saline); 106 % of control (dose: 200.0 mg/kg/injection, schedule: Q01DX001 (ip), vehicle: saline); 106 % of control (dose: 400.0 mg/kg/injection, schedule: Q01DX001 (ip), vehicle: saline).

The record behind these values is PubChem BioAssay AID330 (DTP/NCI, 2004).
